Test results: ChEMBL document CHEMBL2331421, “Amino acid derived quinazolines as Rock/PKA inhibitors” (Bioorg Med Chem Lett, 2013)
pIC50: −log10 of the molar value.

Key:
[1] = Inhibition of PKA (unknown origin); design: species or system Homo sapiens
[2] = target: Rho-associated protein kinase 2 (Homo sapiens, UniProt O75116); assay: Inhibition of human recombinant 6-His-tagged ROCK2 expressed in baculovirus-infected Sf9 cells using LCB-AKRRRLSSLRA-NH2 as substrate after 25 mins by TR-FRET assay
Chain of Rho-associated protein kinase 2 (O75116 whole entry): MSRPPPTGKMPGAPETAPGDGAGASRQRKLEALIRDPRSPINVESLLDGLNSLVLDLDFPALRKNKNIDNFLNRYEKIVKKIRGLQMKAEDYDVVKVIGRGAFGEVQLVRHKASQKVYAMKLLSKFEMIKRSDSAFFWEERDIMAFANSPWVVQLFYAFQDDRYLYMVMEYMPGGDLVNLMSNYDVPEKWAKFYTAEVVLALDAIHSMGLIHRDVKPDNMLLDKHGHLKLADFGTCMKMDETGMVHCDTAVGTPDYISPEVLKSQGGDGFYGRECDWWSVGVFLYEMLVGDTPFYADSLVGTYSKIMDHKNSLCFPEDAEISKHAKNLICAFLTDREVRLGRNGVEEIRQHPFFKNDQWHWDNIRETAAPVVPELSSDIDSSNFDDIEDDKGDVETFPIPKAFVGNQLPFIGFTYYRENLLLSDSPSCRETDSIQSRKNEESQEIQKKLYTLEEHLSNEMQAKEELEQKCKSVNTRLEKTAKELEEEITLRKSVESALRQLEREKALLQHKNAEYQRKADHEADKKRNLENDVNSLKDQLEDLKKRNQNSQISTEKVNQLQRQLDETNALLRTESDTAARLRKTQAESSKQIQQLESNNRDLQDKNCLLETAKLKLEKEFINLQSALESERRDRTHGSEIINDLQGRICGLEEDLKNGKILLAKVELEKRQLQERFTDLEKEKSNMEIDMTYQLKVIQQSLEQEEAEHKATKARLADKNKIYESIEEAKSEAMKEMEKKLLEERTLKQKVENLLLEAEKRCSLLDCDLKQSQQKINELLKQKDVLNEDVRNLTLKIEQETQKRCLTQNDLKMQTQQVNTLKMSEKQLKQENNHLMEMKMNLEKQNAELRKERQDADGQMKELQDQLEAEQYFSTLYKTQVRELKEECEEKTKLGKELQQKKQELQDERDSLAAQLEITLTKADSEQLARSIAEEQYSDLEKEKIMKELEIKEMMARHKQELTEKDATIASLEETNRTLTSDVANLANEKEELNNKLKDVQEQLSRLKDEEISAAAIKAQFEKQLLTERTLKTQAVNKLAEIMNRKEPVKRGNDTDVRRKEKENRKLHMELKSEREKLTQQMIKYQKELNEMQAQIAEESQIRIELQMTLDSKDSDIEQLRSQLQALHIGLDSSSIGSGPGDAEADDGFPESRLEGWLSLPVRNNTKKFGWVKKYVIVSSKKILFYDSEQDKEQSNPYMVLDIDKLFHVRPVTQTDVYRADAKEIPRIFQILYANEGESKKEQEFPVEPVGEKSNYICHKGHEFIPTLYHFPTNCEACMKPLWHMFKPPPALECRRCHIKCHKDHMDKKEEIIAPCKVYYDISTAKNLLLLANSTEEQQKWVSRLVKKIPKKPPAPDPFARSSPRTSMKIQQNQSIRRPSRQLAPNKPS

Row | Structure (SMILES) | pIC50 [1] | pIC50 [2]
1 | Fc1ccc([C@@H]2CNC[C@H]2c2nc(N3CCC3)c3cc(-c4cn[nH]c4)ccc3n2)cc1 | 6.35 | 7.15
2 | CN(C)CCNc1nc([C@@H]2CNC[C@H]2c2ccc(F)cc2)nc2ccc(-c3cn[nH]c3)cc12 | 6.05 | 6.43
3 | NCCC(=O)NC(c1ccc(Cl)cc1)c1nc2ccc(-c3cn[nH]c3)cc2c(=O)[nH]1 (configuration not stated) | 7.68 | 8.22
4 | NCc1cccc(C(=O)NC(c2ccc(Cl)cc2)c2nc3ccc(-c4cn[nH]c4)cc3c(=O)[nH]2)c1 (configuration not stated) | 7.55 | 7.70
5 | C[N+]1(C)C[C@@H](c2ccccc2)[C@H](c2nc3ccc(-c4cn[nH]c4)cc3c(=O)[nH]2)C1 | 7.64 | 8.40
6 | CN(C)CCN(C)c1nc([C@H](N)Cc2cccc(F)c2)nc2ccc(-c3cn[nH]c3)cc12 | 5.94 | 6.20
7 | CN(CCO)c1nc([C@H](N)Cc2cccc(F)c2)nc2ccc(-c3cn[nH]c3)cc12 | 7.36 | 7.57
8 | CN(CCCO)c1nc([C@H](N)Cc2cccc(F)c2)nc2ccc(-c3cn[nH]c3)cc12 |  | 6.80
9 | CN(CCO)c1nc([C@@H](N)Cc2cccc(F)c2)nc2ccc(-c3cn[nH]c3)cc12 | 6.55 | 7.57
10 | CN(C)c1nc([C@@H](N)Cc2cccc(F)c2)nc2ccc(-c3cn[nH]c3)cc12 | 6.59 | 7.17
11 | NC(c1ccc(Cl)cc1)c1nc2ccc(-c3cn[nH]c3)cc2c(=O)[nH]1 (configuration not stated) | 8.05 | 8.00
12 | COc1cc(-c2cn[nH]c2)cc2c(=O)[nH]c(C(N)c3ccc(Cl)cc3)nc12 (configuration not stated) | 7.85 | 8.05
13 | O=c1[nH]c([C@@H]2CNC[C@H]2c2ccc(F)cc2)nc2ccc(-c3cn[nH]c3)cc12 | 8.15 | 8.70
14 | O=c1[nH]c([C@@H]2CNC[C@H]2c2ccc(C(F)(F)F)cc2)nc2ccc(-c3cn[nH]c3)cc12 | 8.22 | 8.70
15 | COc1ccc([C@@H]2CN(Cc3ccccc3)C[C@H]2c2nc3ccc(-c4cn[nH]c4)cc3c(=O)[nH]2)cc1 | 6.93 | 7.06
16 | O=c1[nH]c([C@@H]2CN(Cc3ccccc3)C[C@H]2c2cccc(F)c2)nc2ccc(-c3cn[nH]c3)cc12 | 6.37 | 6.65
17 | O=c1[nH]c([C@@H]2CN(Cc3ccccc3)C[C@H]2c2ccccc2F)nc2ccc(-c3cn[nH]c3)cc12 | 6.63 | 7.31
18 | O=C(Cc1cccnc1)N[C@H](Cc1ccc(Cl)cc1)c1nc2ccc(-c3cn[nH]c3)cc2c(=O)[nH]1 |  | 6.62
19 | CCN[C@H](Cc1ccc(Cl)cc1)c1nc2ccc(-c3cn[nH]c3)cc2c(=O)[nH]1 | 7.77 | 7.85
20 | COc1cc(-c2cn[nH]c2)cc2c(=O)[nH]c([C@@H](N)Cc3cccc(F)c3)nc12 | 7.59 | 8.10
21 | CCOc1ccc(C[C@H](N)c2nc3ccc(-c4cn[nH]c4)cc3c(=O)[nH]2)cc1 | 7.22 | 7.72
22 | COc1ccc(C[C@H](N)c2nc3ccc(-c4cn[nH]c4)cc3c(=O)[nH]2)cc1OC | 7.42 | 7.41
23 | N[C@H](Cc1ccc(F)c(F)c1)c1nc2ccc(-c3cn[nH]c3)cc2c(=O)[nH]1 | 7.92 | 8.15
24 | N[C@H](Cc1cccc(Cl)c1)c1nc2ccc(-c3cn[nH]c3)cc2c(=O)[nH]1 | 8.22 | 7.89
25 | N[C@H](Cc1cccc(F)c1)c1nc2ccc(-c3cn[nH]c3)cc2c(=O)[nH]1 | 8.05 | 8.00
26 | N[C@H](Cc1cccc(C(F)(F)F)c1)c1nc2ccc(-c3cn[nH]c3)cc2c(=O)[nH]1 | 7.55 | 7.80
27 | COc1ccc(C(N)c2nc3ccc(-c4c[nH]nc4C)cc3c(=O)[nH]2)cc1 (configuration not stated) |  | 7.01
28 | Nc1nccc(-c2ccc3nc([C@@H]4CNC[C@H]4c4ccccc4)[nH]c(=O)c3c2)n1 | 8.00 | 8.22
29 | Cc1n[nH]cc1-c1ccc2nc([C@@H]3CNC[C@H]3c3ccccc3)[nH]c(=O)c2c1 | 8.15 | 8.15
30 | N[C@H](Cc1ccc(Cl)cc1)c1nc2ccc(-c3cn[nH]c3)cc2c(=O)[nH]1 | 8.30 | 8.40
